Source: PMC8252455, “Prediction of a clinically effective dose of THY1773, a novel V 1B receptor antagonist, based on preclinical data” (Biopharmaceutics & Drug Disposition, 2021)
Marks after values point to notes of the source that are not given here.

Assays:
CYP3A = experiment: Reaction phenotyping in HLMs with ketoconazole; format: in vitro ADME, human
Description: Reaction phenotyping using cDNA expressed recombinant human CYP isoforms, CYP1A2, CYP2B6, CYP2C8, CYP2C9, CYP2C19, CYP2D6, and CYP3A4, was conducted. Each recombinant enzyme (100 pmol/ml) in potassium phosphate buffer (pH 7.4; 100 mmol/L for CYP3A4, 50 mmol/L for the others) was preincubated with [^3H]THY1773 (10 μmol/L) at 37°C for 5 min. The reactions were initiated by the addition of NADPH‐generating system (1 mmol/L NADP^+, 5 mmol/L G‐6‐P, 1 unit/ml G‐6‐PDH, and 5 mmol/L MgCl2) and incubated for 0 or 60 min. The reactions were terminated by the addition of an equal volume of acetonitrile/methanol (9:1, vol/vol), followed by centrifugation at 1650 × g for 10 min at 4°C. An aliquot of the supernatant was subjected to an Agilent 1200 HPLC system (Agilent Technologies, Inc.) equipped with a radiochemical flow detector (Radiomatic 625TR; Perkin Elmer, Inc.), and formation of metabolites was evaluated. […] The CLint was calculated by the method as described previously under metabolic stability in animal liver microsomes, and the fraction metabolized (fm) was calculated by Equation (1): (1) fm=1−(CLint, with inh/CLint) where CLint is intrinsic clearance without specific inhibitor and CLint,with inh is intrinsic clearance in the presence of specific inhibitor.

[1] = Plasma protein binding by equilibrium dialysis, rat plasma; format: in vitro ADME; details: 300 ng/ml
Description: (§1) The plasma protein binding of THY1773 in rats, dogs, and humans was evaluated by an equilibrium dialysis method using a 96‐well equilibrium dialysis plate (HTDialysis) with a 12–14 kDa cut‐off dialysis membrane. THY1773 was dissolved in dimethyl sulfoxide, and spiked with rat, dog, or human plasma at a final concentration of 300 ng/ml. An aliquot of plasma containing THY1773 and sodium phosphate buffer (pH 7.4) was added into the donor side and the receiver side of each designated well, respectively. After incubation for 6 h at a rate of 50 oscillation/min at 37°C in an air incubator, an aliquot of each side of each well was collected and mixed with acetonitrile/methanol (9:1, vol/vol) containing the IS. Each sample was centrifuged at 3974 × g for 10 min at 4°C to remove the precipitated proteins, and the resultant supernatants were subjected to LC‐MS/MS analysis. The protein binding (%) was calculated using the Boudinot formula (Boudinot & Jusko, 1984).

[2] = Plasma protein binding by equilibrium dialysis, human plasma; format: in vitro ADME; details: PBPK input, experimental data
Description: as §1

Prediction of human Vdss = experiment: Prediction of human Vdss
Excerpt: Human Vdss was also predicted by the two methods reported to be the best methods based on the prediction accuracy (Jones et al., 2011), which were Øie‐Tozer method (Obach et al., 1997) and rat–dog–human proportionality equation described (Wajima, Fukumura, Yano, & Oguma, 2003) by Equations (6) and (7), respectively: (6) Vdss[L/kg]=Vp×(1+RE/I)+Vp×fu×(Ve/Vp−RE/I)+Vr×fu/fu,t (7) log(Vdss,human)=0.07714×log(Vdss,rat)×log(Vdss,dog)+0.5147×log(Vdss,dog)+0.586 where fu,t is the fraction unbound in tissues, RE/I is the ratio of binding protein in the extracellular fluid to that in plasma, Ve, Vp, and Vr is the extracellular, plasma, and remaining fluid volume, respectively. Volumes and plasma protein levels were used as described by Obach et al. (1997).
The fold error of the difference between observed and predicted human PK parameters was calculated by dividing the predicted value by the observed value.

[3] = Physicochemical properties (Log P, pKa); details: experimental data
Excerpt: TABLE 2 Human PBPK/RO model input parameters for THY1773 | column: Value

CC(C)NC(=O)Cn1c(-c2cccc(Cl)c2)nn(-c2ccc(CCN3CCOCC3)cc2)c1=O [THY1773]
fm (fraction metabolized) (CYP3A; by CYP3A, ketoconazole 1 μmol/L): 0.914 | CLint (CYP3A; with ketoconazole 1 μmol/L, mean of duplicate): 0.961 ^a μl/min/mg | Plasma protein binding [1]: 89.2% | Fraction unbound in plasma [2]: 0.017 | Predicted human Vdss (Prediction of human Vdss; Rat–dog–human proportionality equation): 1.38 L/kg | Predicted human Vdss (Prediction of human Vdss; Single species scaling (rat)): 0.349 L/kg | Predicted human Vdss (Prediction of human Vdss; Øie‐Tozer method): 0.404 L/kg | Log P [3]: 3.17 | pKa ([3]; monoprotic base): 6.85
